Source: BindingDB's records for doi:10.7270/Q2W957MN (The Scripps Research Institute Molecular Screening Center, 2010)

Target: T1, Trans-activator protein BZLF1 (Epstein-Barr virus (strain B95-8), UniProt P03206)
T1 sequence (P03206 whole entry): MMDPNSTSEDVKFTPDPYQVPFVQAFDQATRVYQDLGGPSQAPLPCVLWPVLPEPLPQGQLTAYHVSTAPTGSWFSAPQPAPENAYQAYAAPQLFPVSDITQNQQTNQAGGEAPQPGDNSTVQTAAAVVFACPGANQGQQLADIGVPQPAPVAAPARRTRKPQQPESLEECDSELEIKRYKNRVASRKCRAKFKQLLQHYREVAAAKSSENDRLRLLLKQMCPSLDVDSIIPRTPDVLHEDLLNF
Test: EBV ZTA inhibitors, dose response, counter-screen for EBNA-1 inhibitor project, biochemical, fluorescence polarization, Epstein-Barr virus, 1536-well (AID 2377)

SMILES | IC50 [µM]
COc1ccc(-n2cc(O)c(-c3nc4ccccc4s3)c2N)cc1 | > 111
COc1cccc(-n2cc(O)c(-c3nc4ccccc4c(=O)[nH]3)c2N)c1 [MLS000075886] | > 111
CN1C(=O)/C(=N\NC(=O)c2cc(-c3cccs3)nc3ccccc23)c2ccccc21 [SMR000242891] | > 111
O=[N+]([O-])c1cccc(CN=Nc2nc(NCc3ccccc3)nc(N3CCOCC3)n2)c1 [SMR000174986] | > 111
O=C(Nc1nc2cc3c(cc2s1)OCCO3)c1ccc(-n2c(O)ccc2O)cc1 | 15.1
COc1cc(-c2nc3n(n2)C(c2cccc(OC)c2OC)C2C(=O)CCCC2=N3)cc(OC)c1OC (configuration not stated) | > 111
C=c1cc2[nH]c(=O)c(=Cc3cn(C)c4ccccc34)c(=N)n2o1 [(6Z)-7-imino-2-methyl-6-[(1-methylindol-3-yl)methylidene]-[1,2]oxazolo[2,3-a]pyrimidin-5-one] | > 111
